The record followed here is article PMC2610677 (Chemistry & biology, 2008).

This assay concerns the target trORAS (truncated ORAS) (Neurospora crassa, UniProt Q7S6N4). Kind of assay: HPLC of CoASH release, initial velocities, Michaelis-Menten fit. Format: biochemical. To be noted: malonyl-CoA (100 mM [sic]) as extender; 50 mM Tris-HCl pH 7.0; 30 °C.

The term Km denotes the substrate concentration at which the rate is half of its maximum. As for `CCCCCCCCCCCCCCCCCC(=O)SCCNC(=O)CCNC(=O)[C@H](O)C(C)(C)COP(=O)(O)OP(=O)(O)OC[C@H]1O[C@@H](n2cnc3c(N)ncnc32)[C@H](O)[C@@H]1OP(=O)(O)O` [7a, stearoyl-CoA], the Km was determined as 3.5 µM.
